# Source: PubChem BioAssay (NCI)
#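 Test compounds were applied to cells in 96-well plates for 48 hours at 5 doses. GI50 marks 50% less growth. TGI: concentration producing complete growth inhibition.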
# Assays:
# Experiment in all cases: NCI-60 cell line screen, 48 h
# [1] = test system: LOX IMVI melanoma
# [2] = test system: PC-3 prostate
# [3] = test system: SN12C renal
# [4] = test system: HOP-62 NSCLC
# [5] = test system: MDA-MB-231 breast
# [6] = test system: M14 melanoma
# [7] = test system: A549 NSCLC
# [8] = test system: MALME-3M melanoma
# [9] = test system: HCT-15 colon
# [10] = test system: UO-31 renal
compound,measurement,setting,value
NC(CSC(c1ccccc1)(c1ccccc1)c1ccc2ccccc2c1)C(=O)O (stereo not given),GI50,[1],172 nM
same,TGI,[1],18.1 µM
same,GI50,[2],62.8 nM
same,TGI,[2],> 82.7 µM
same,GI50,[3],87.4 nM
same,TGI,[3],18.2 µM
same,GI50,[4],114 nM
same,TGI,[4],14.4 µM
same,GI50,[5],69.5 nM
same,TGI,[5],5 µM
same,GI50,[6],21.1 nM
same,TGI,[6],51.2 nM
same,GI50,[7],95 nM
same,TGI,[7],26.4 µM
same,GI50,[8],1330 nM
same,TGI,[8],25.4 µM
same,GI50,[9],175 nM
same,TGI,[9],23.7 µM
same,GI50,[10],3.1 µM
same,TGI,[10],24.3 µM
